≈ marks a conversion by molar mass, not a printed value.
Assays:
[1] = Antiproliferative activity against mouse […] cells assessed as inhibition of cell growth incubated for 48 hrs by MTT assay; assay type: functional, cell-based; details: time 48 hrs, read-out: ED50 (the source's name)
Rhizoctonia solani = assay: Antifungal activity Rhizoctonia solani assessed as fungal growth inhibition measured after 4 to 8 days; assay type: functional, organism-based
Phytophthora nicotianae = assay: Antifungal activity against Phytophthora nicotianae assessed a fungal growth inhibition measured after 4 to 8 days; assay type: functional, organism-based
MCF7 [2] = assay: Cytotoxicity against human MCF7 cells assessed as reduction in cell growth incubated for 24 hrs by MTT assay; assay type: functional, cell-based; details: MCF7, 24 h
[3] = Cytotoxicity against African green monkey Vero cells incubated for 48 hrs by SRB colorimetric assay; assay type: toxicity, cell-based, Chlorocebus sabaeus
Coagulation factor X = Coagulation factor X (Homo sapiens, UniProt P00742); assay: Inhibition of human factor Xa
MG-63 = assay: Cytotoxicity against human MG-63 cells assessed as reduction in cell viability incubated for 48 hrs by MTT assay; assay type: functional, cell-based; details: MG-63, 48 h
SAOS-2 = assay: Cytotoxicity against human SAOS-2 cells assessed as reduction in cell viability incubated for 48 hrs by MTT assay; assay type: functional, cell-based; details: SAOS-2, 48 h
U2OS = assay: Cytotoxicity against human U2OS cells assessed as reduction in cell viability incubated for 48 hrs by MTT assay; assay type: functional, cell-based
HT-29 = assay: Antiproliferative activity against human HT-29 cells assessed as reduction in cell viability incubated for 24 hrs by MTT assay; assay type: functional, cell-based; details: HT-29, 24 h
PC-3 = assay: Antiproliferative activity against human PC-3 cells assessed as reduction in cell viability incubated for 24 hrs by MTT assay; assay type: functional, cell-based; details: PC-3, 24 h
HeLa = assay: Antiproliferative activity against human HeLa cells assessed as reduction in cell viability incubated for 24 hrs by MTT assay; assay type: functional, cell-based
NCI-H460 = assay: Cytotoxicity against human NCI-H460 cells assessed as reduction in cell growth incubated for 72 hrs by CCK-8 assay; assay type: functional, cell-based; details: NCI-H460, 72 h
ES-2 = assay: Cytotoxicity against human ES2 cells assessed as reduction in cell growth incubated for 72 hrs by CCK-8 assay; assay type: functional, cell-based; details: ES-2, 72 h
A549 = assay: Cytotoxicity against human A549 cells assessed as reduction in cell growth incubated for 72 hrs by CCK-8 assay; assay type: functional, cell-based; details: A549, 72 h
NCI-H1299 = assay: Cytotoxicity against human NCI-H1299 cells assessed as reduction in cell growth incubated for 72 hrs by CCK-8 assay; assay type: functional, cell-based; details: NCI-H1299, 72 h
SW626 = assay: Cytotoxicity against human SW626 cells assessed as reduction in cell growth incubated for 72 hrs by CCK-8 assay; assay type: functional, cell-based; details: SW626, 72 h
SK-OV-3 = assay: Cytotoxicity against human SK-OV-3 cells assessed as reduction in cell growth incubated for 72 hrs by CCK-8 assay; assay type: functional, cell-based; details: SK-OV-3, 72 h
HEY = assay: Cytotoxicity against human HEY cells assessed as reduction in cell growth incubated for 72 hrs by CCK-8 assay; assay type: functional, cell-based
Caco-2 = assay: Cytotoxicity against human Caco-2 cells assessed as reduction in cell growth incubated for 72 hrs by CCK-8 assay; assay type: functional, cell-based; details: Caco-2, 72 h
OVCAR-5 = assay: Cytotoxicity against human OVCAR-5 cells assessed as reduction in cell growth incubated for 72 hrs by CCK-8 assay; assay type: functional, cell-based; details: OVCAR-5, 72 h
MCF7 [4] = assay: Antiproliferative activity against human MCF7 cells assessed as inhibition of cell growth at 10 uM incubated for 48 hrs by SRB assay relative to control; assay type: functional; parameters: scale not given: the % may be the effect or the level left
Cholinesterase = Cholinesterase (Homo sapiens, UniProt P06276); assay: Inhibition of BchE (unknown origin)
Acetylcholinesterase = Acetylcholinesterase (Homo sapiens, UniProt P22303); assay: Inhibition of AChE (unknown origin)
MCF7 [5] = assay: Antiproliferative activity against human MCF7 cells assessed as reduction in cell growth incubated for 48 hrs by MTT assay; assay type: functional, cell-based; details: MCF7, 48 h
HUVEC = assay: Antiproliferative activity against VEGF-stimulated human HUVEC cells assessed as reduction in cell viability incubated for 72 hrs by Cell Counting Kit-8 assay; assay type: functional, cell-based
[6] = Antiproliferative activity against mouse L929 cells assessed as inhibition of cell growth incubated for 5 days by MTT assay; assay type: toxicity, cell-based
MDA-MB-231 = assay: Antiproliferative activity against human MDA-MB-231 cells assessed as reduction in cell growth incubated for 48 hrs by MTT assay; assay type: functional, cell-based; details: MDA-MB-231, 48 h
4T1 = assay: Cytotoxicity against mouse 4T1 cells assessed as reduction in cell growth incubated for 48 hrs by MTT assay; assay type: functional, cell-based; details: 4T1, 48 h
[7] = molecular target: Amine oxidase [flavin-containing] B (Homo sapiens, UniProt P27338); assay: Inhibition of human recombinant MAO-B expressed in insect cells incubated for 15 mins by Amplex red and horseradish peroxidase based fluorescence assay; parameters: species or system Insect cell
Histone deacetylase 1 = Histone deacetylase 1 (Homo sapiens, UniProt Q13547); assay: Inhibition of human recombinant HDAC1
Histone deacetylase 3 = Histone deacetylase 3 (Homo sapiens, UniProt O15379); assay: Inhibition of human recombinant HDAC3
Histone deacetylase 2 = Histone deacetylase 2 (Homo sapiens, UniProt Q92769); assay: Inhibition of human recombinant HDAC2
[8] = molecular target: Telomerase reverse transcriptase (Homo sapiens, UniProt O14746); assay: Inhibition of telomerase (unknown origin)
HepG2 = assay: Cytotoxicity against human HepG2 cells assessed as reduction in cell viability incubated for 72 hrs by MTT assay; assay type: functional, cell-based; details: HepG2, 72 h

Sequence of Acetylcholinesterase (P22303 whole entry): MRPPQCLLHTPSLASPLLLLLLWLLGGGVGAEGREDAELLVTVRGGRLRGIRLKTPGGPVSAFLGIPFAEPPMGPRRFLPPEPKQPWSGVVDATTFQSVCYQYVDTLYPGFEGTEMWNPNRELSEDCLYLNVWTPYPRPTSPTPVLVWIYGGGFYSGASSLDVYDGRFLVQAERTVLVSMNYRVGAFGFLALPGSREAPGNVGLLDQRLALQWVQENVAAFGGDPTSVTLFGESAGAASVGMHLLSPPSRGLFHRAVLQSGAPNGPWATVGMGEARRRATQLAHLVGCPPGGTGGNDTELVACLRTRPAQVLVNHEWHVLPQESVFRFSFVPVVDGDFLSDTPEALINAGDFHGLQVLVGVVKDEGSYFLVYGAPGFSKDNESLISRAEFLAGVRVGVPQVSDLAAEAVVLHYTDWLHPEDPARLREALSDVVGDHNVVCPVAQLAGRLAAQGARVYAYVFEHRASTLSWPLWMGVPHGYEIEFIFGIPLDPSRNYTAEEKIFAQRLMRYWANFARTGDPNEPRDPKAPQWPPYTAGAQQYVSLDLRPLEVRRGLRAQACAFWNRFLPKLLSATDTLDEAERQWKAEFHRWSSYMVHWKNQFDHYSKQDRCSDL
Sequence of Cholinesterase (P06276 whole entry): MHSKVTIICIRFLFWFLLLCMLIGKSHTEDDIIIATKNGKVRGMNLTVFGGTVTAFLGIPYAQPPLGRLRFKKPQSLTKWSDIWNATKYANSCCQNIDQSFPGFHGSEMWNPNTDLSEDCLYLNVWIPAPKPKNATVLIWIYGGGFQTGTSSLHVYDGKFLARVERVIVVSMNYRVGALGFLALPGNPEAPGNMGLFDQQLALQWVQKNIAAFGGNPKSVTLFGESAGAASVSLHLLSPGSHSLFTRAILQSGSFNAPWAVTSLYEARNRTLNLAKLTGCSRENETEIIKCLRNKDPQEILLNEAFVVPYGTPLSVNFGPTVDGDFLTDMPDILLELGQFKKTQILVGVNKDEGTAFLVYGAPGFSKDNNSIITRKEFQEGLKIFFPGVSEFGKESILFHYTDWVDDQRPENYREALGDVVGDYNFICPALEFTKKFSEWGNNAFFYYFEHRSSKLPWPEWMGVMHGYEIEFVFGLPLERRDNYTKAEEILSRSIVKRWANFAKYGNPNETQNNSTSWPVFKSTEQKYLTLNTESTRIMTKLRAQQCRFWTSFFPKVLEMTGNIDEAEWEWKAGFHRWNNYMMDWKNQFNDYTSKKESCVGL
Sequence of Coagulation factor X (P00742 41-179 limits assumed): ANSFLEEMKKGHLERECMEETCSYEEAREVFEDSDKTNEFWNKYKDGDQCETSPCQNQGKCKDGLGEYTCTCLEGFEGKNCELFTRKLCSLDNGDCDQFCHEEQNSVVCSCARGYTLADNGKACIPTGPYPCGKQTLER
Sequence of Coagulation factor X (P00742 235-488 limits assumed): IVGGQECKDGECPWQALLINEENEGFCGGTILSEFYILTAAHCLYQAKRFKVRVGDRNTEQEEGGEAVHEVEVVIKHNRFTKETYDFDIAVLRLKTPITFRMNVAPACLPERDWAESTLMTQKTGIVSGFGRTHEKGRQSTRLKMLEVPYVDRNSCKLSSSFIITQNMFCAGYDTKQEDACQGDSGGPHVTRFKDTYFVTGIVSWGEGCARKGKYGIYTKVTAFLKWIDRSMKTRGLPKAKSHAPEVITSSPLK
Sequence of Amine oxidase [flavin-containing] B (P27338 whole entry): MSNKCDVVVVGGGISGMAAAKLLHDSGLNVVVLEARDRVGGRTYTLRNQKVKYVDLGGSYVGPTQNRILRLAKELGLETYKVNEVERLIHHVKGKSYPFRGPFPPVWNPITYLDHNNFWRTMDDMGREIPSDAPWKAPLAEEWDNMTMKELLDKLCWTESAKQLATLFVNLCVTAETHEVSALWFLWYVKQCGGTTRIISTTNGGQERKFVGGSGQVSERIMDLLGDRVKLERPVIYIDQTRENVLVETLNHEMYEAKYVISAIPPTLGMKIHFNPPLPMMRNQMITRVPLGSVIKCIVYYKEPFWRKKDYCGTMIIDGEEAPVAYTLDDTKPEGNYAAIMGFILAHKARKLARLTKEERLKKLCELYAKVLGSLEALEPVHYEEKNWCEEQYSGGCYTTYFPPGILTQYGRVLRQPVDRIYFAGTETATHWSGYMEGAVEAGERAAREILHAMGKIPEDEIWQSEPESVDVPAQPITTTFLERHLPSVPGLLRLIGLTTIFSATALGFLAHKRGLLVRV
Sequence of Histone deacetylase 3 (O15379 whole entry): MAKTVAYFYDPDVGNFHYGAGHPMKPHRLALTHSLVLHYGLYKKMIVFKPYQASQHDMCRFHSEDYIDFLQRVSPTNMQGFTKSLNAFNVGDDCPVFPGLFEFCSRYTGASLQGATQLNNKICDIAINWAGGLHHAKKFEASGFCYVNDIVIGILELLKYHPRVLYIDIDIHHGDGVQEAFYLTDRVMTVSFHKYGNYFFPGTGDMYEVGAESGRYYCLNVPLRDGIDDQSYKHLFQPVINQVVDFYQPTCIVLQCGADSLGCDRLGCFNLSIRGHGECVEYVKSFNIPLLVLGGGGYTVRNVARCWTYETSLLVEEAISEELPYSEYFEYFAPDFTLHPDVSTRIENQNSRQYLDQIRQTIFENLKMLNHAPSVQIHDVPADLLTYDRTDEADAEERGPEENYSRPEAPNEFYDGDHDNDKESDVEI
Sequence of Histone deacetylase 1 (Q13547 whole entry): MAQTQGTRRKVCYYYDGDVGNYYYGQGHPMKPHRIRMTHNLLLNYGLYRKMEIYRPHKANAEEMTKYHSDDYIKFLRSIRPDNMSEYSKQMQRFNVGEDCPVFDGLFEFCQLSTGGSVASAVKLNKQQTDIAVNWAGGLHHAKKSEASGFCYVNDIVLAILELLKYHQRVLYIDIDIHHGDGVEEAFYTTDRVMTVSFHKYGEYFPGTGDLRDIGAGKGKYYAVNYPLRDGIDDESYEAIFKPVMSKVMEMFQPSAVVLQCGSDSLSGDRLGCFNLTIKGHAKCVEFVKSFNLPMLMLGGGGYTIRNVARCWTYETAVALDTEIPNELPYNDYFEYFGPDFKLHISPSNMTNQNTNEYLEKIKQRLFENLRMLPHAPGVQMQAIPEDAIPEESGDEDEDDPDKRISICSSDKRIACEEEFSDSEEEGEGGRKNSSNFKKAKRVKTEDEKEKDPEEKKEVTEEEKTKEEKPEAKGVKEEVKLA
Sequence of Telomerase reverse transcriptase (O14746 whole entry): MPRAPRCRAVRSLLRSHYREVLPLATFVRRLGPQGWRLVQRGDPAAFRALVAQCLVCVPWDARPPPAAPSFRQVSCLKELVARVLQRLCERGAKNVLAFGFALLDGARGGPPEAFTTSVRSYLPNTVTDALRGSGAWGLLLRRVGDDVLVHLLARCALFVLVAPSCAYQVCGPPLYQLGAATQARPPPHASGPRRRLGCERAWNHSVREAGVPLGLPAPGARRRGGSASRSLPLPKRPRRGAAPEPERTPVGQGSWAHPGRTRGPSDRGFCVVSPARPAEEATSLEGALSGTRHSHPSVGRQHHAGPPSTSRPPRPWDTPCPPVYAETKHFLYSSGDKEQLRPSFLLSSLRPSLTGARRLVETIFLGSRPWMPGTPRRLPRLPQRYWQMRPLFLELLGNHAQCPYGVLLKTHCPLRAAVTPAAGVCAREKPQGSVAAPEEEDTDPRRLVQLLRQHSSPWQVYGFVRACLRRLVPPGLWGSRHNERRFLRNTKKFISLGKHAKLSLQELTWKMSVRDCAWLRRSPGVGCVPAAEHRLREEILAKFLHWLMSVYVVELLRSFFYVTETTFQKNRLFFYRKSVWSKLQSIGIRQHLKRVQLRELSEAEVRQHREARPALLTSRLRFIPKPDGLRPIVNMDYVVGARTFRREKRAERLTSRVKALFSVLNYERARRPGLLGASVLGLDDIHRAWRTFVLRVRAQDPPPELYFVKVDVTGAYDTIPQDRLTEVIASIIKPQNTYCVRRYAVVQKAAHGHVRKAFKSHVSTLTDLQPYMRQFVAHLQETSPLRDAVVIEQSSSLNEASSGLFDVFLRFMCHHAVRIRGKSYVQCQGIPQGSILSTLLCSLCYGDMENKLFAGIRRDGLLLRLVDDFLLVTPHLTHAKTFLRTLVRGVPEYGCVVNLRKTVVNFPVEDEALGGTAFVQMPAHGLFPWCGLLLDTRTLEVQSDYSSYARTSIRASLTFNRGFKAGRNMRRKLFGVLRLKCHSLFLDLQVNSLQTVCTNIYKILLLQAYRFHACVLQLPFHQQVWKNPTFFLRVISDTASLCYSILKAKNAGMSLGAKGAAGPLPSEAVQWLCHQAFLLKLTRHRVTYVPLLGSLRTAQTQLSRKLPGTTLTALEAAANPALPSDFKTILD
Sequence of Histone deacetylase 2 (Q92769 whole entry): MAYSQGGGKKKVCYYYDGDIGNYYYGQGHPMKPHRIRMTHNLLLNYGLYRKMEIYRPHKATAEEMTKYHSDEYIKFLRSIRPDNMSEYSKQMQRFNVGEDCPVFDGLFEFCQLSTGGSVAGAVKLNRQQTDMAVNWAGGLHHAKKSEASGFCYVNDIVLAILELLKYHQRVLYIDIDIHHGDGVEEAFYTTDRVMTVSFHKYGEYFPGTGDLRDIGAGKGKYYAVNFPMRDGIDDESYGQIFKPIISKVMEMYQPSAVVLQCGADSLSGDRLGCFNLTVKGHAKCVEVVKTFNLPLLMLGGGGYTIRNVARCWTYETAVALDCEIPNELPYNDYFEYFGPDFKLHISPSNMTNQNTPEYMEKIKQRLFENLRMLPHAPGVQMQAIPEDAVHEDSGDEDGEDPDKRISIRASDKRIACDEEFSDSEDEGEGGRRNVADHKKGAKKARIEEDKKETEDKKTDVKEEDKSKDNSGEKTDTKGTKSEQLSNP

C[C@@H]1[C@@]2(CC[C@](C)(O)CO2)O[C@H]2C=C3[C@@H]4[C@@H](O)C[C@H]5Cc6nc7c(nc6C[C@]5(C)[C@H]4C[C@@H](O)[C@]3(C)[C@]21O)C[C@@H]1CC[C@@H]2[C@H](CC(=O)[C@]23C[C@@H]2O[C@]4(CCC(C)(C)O4)[C@@H](C)[C@@H]2[C@]3(C)O)[C@@]1(C)C7 [RITTERAZINE D] showed an EC50 [1] of 0.00017 µM.

Molecule CC(OC(=O)c1ccccc1)c1cnccn1 (configuration not stated) has an EC50 (Rhizoctonia solani) of 0.019 µg/mL (≈ 0.0832 µM) and an EC50 (Phytophthora nicotianae) of 0.187 µg/mL (≈ 0.819 µM).

With CN(C)CCNc1ccc2c3c(cccc13)-c1nc(C#N)c(C#N)nc1-2 the IC50 (MCF7 [2]) was 4.6 µM.

For COC(=O)c1sc2nccnc2c1Nc1ccccc1OC, the IC50 at 48 h [3] was 21.3 µM.

O=C1CN(S(=O)(=O)c2ccc3cc(Cl)ccc3c2)CC2(CO)NC3(CCN(c4ccncc4)CC3)CN12 (configuration not stated) gave an IC50 (Coagulation factor X) of 0.00061 µM.

Work on Cc1nc(C)c(C)nc1C [LIGUSTRAZINE] yielded an IC50 (MG-63) of 10.3 µg/mL (≈ 75.6 µM), an IC50 (SAOS-2) of 24.7 µg/mL (≈ 181 µM) and an IC50 (U2OS) of 54.7 µg/mL (≈ 402 µM).

With Cc1cnc(COC(=O)c2ccccc2)cn1 the EC50 (Rhizoctonia solani) was 0.021 µg/mL (≈ 0.092 µM).

For O=C1c2cccc3c2c(cc2nccnc23)C(=O)N1CCNCCCNCCN1C(=O)c2cccc3c2c(cc2nccnc23)C1=O, the IC50 (HT-29) was 0.02 µM, the IC50 (PC-3) was 0.53 µM and the IC50 (HeLa) was 0.2 µM.

Work on c1cn2cc(-c3ccc4cn[nH]c4c3)nc(Nc3ccc(N4CCOCC4)cc3)c2n1 [ENTOSPLETINIB] yielded an IC50 (NCI-H460) of over 10 µM, an IC50 (ES-2) of over 10 µM and an IC50 (A549) of over 10 µM. It also gave an IC50 (NCI-H1299) of 6.26 µM, an IC50 (SW626) of over 10 µM and an IC50 (SK-OV-3) of over 10 µM. The IC50 (HEY) was over 10 µM, the IC50 (Caco-2) was 6.86 µM and the IC50 (OVCAR-5) was 8.3 µM.

COc1nccc2c1N1C(=O)c3cc4ccccc4n3C(=O)C1C2 (configuration not stated) gave an Activity (MCF7 [4]) of 50.9%.

CN(CCCN(C)CCN1C(=O)c2cccc3c(N)c(N)cc(c23)C1=O)CCN1C(=O)c2cccc3c(N)c(N)cc(c23)C1=O gave an IC50 (HT-29) of 0.06 µM, an IC50 (PC-3) of 0.18 µM and an IC50 (HeLa) of 0.09 µM.

Fc1cccc(-c2cnc3cccnc3n2)c1 showed an IC50 (Cholinesterase) of 0.583 µM and an IC50 (Acetylcholinesterase) of 0.8 µM.

Work on O=[N+]([O-])c1cccc(-c2cnc3cccnc3n2)c1 yielded an IC50 (Cholinesterase) of 1.89 µM and an IC50 (Acetylcholinesterase) of 0.466 µM.

Molecule Cc1nc(C)c(C(=O)NCCCCCCCCCCCCNOC(=O)c2ccc3cc[nH]c3c2)nc1C has an IC50 (MCF7 [5]) of 1.11 µM, an IC50 (HUVEC) of 3.82 µM and an IC50 at 5 days [6] of 3.16 µM. It also gave an IC50 (MDA-MB-231) of 0.84 µM and an IC50 (4T1) of 1.16 µM.

O=C(Nc1ccc2c(ccn2Cc2cccc(F)c2)c1)c1cnccn1 gave an IC50 [7] of 0.78 µM.

In the case of CN1CCN(c2cnc(C(=O)Nc3cc(-c4cccs4)ccc3[N+](=O)[O-])cn2)CC1, the IC50 (Histone deacetylase 1) is reported as 0.07 µM, the IC50 (Histone deacetylase 3) is reported as 6.1 µM and the IC50 (Histone deacetylase 2) is reported as 0.26 µM.

In the case of Brc1ccc(CSc2nnc(-c3cnccn3)s2)cc1, the IC50 [8] is reported as 1.24 µM and the IC50 (HepG2) is reported as 0.78 µM.

Work on CN1C2(CCN(c3ccncc3)CC2)CN2C(=O)CN(S(=O)(=O)c3ccc4cc(Cl)ccc4c3)CC21CO (configuration not stated) yielded an IC50 (Coagulation factor X) of 0.00058 µM.

Reference: ChEMBL document CHEMBL5625161, “Pharmacological activity and mechanism of pyrazines” (Eur J Med Chem, 2023)
